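Test compounds were applied to cells in 96-well plates for 48 hours at 5 doses. TGI: concentration producing complete growth inhibition.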
Key:
Assay in all cases: growth of human tumour cells (NCI), 48 h
SN12C renal = system: SN12C renal
HOP-62 NSCLC = system: HOP-62 NSCLC
UACC-257 melanoma = system: UACC-257 melanoma
786-0 renal = system: 786-0 renal
OVCAR-8 ovarian = system: OVCAR-8 ovarian
KM12 colon = system: KM12 colon
HCC-2998 colon = system: HCC-2998 colon
MDA-N = system: MDA-N
PC-3 prostate = system: PC-3 prostate
BT-549 breast = system: BT-549 breast
SW-620 colon = system: SW-620 colon
HOP-92 NSCLC = system: HOP-92 NSCLC
SNB-75 CNS = system: SNB-75 CNS
U251 CNS = system: U251 CNS
OVCAR-3 ovarian = system: OVCAR-3 ovarian
CCRF-CEM leukemia = system: CCRF-CEM leukemia
LOX IMVI melanoma = system: LOX IMVI melanoma
HCT-15 colon = system: HCT-15 colon
UACC-62 melanoma = system: UACC-62 melanoma
DU-145 prostate = system: DU-145 prostate
RXF 393 renal = system: RXF 393 renal
MDA-MB-435 = system: MDA-MB-435
TK-10 renal = system: TK-10 renal
A549 NSCLC = system: A549 NSCLC
MOLT-4 leukemia = system: MOLT-4 leukemia
SR leukemia = system: SR leukemia
NCI/ADR-RES ovarian = system: NCI/ADR-RES ovarian
CAKI-1 renal = system: CAKI-1 renal
M14 melanoma = system: M14 melanoma
SK-MEL-2 melanoma = system: SK-MEL-2 melanoma
NCI-H23 lung = system: NCI-H23 lung
SNB-19 CNS = system: SNB-19 CNS
NCI-H226 lung = system: NCI-H226 lung
IGROV1 ovarian = system: IGROV1 ovarian
COLO 205 colon = system: COLO 205 colon
SK-MEL-28 melanoma = system: SK-MEL-28 melanoma
HCT-116 colon = system: HCT-116 colon
HL-60(TB) leukemia = system: HL-60(TB) leukemia
A498 renal = system: A498 renal
HS 578T breast = system: HS 578T breast
MDA-MB-231 breast = system: MDA-MB-231 breast
NCI-H522 lung = system: NCI-H522 lung
MCF7 breast = system: MCF7 breast
UO-31 renal = system: UO-31 renal
SF-295 CNS = system: SF-295 CNS
SF-539 CNS = system: SF-539 CNS
SF-268 CNS = system: SF-268 CNS
EKVX NSCLC = system: EKVX NSCLC
MALME-3M melanoma = system: MALME-3M melanoma
ACHN renal = system: ACHN renal
K-562 leukemia = system: K-562 leukemia
HT29 colon = system: HT29 colon
T-47D breast = system: T-47D breast
RPMI-8226 leukemia = system: RPMI-8226 leukemia
OVCAR-5 ovarian = system: OVCAR-5 ovarian
SK-OV-3 ovarian = system: SK-OV-3 ovarian
SK-MEL-5 melanoma = system: SK-MEL-5 melanoma
NCI-H460 lung = system: NCI-H460 lung
OVCAR-4 ovarian = system: OVCAR-4 ovarian

COc1cc(CSc2ccc(O)cc2)cc(O)c1O
TGI (SN12C renal): 80.5 µM
TGI (HOP-62 NSCLC): > 100 µM
TGI (UACC-257 melanoma): > 100 µM
TGI (786-0 renal): > 100 µM
TGI (OVCAR-8 ovarian): 58.2 µM
TGI (KM12 colon): 91.9 µM
TGI (HCC-2998 colon): > 100 µM
TGI (MDA-N): > 100 µM
TGI (PC-3 prostate): > 100 µM
TGI (BT-549 breast): 63.6 µM
TGI (SW-620 colon): > 100 µM
TGI (HOP-92 NSCLC): 50.4 µM
TGI (SNB-75 CNS): > 100 µM
TGI (U251 CNS): > 100 µM
TGI (OVCAR-3 ovarian): 67.6 µM
TGI (CCRF-CEM leukemia): 87 µM
TGI (LOX IMVI melanoma): > 100 µM
TGI (HCT-15 colon): 57.1 µM
TGI (UACC-62 melanoma): 61.2 µM
TGI (DU-145 prostate): > 100 µM
TGI (RXF 393 renal): > 100 µM
TGI (MDA-MB-435): 94.6 µM
TGI (TK-10 renal): > 100 µM
TGI (A549 NSCLC): > 100 µM
TGI (MOLT-4 leukemia): > 100 µM
TGI (SR leukemia): > 100 µM
TGI (NCI/ADR-RES ovarian): 71.3 µM
TGI (CAKI-1 renal): 91.2 µM
TGI (M14 melanoma): 43.7 µM
TGI (SK-MEL-2 melanoma): 79.1 µM
TGI (NCI-H23 lung): > 100 µM
TGI (SNB-19 CNS): > 100 µM
TGI (NCI-H226 lung): 65.5 µM
TGI (IGROV1 ovarian): > 100 µM
TGI (COLO 205 colon): 52.6 µM
TGI (SK-MEL-28 melanoma): > 100 µM
TGI (HCT-116 colon): 49.7 µM
TGI (HL-60(TB) leukemia): > 100 µM
TGI (A498 renal): > 100 µM
TGI (HS 578T breast): > 100 µM
TGI (MDA-MB-231 breast): 73.5 µM
TGI (NCI-H522 lung): 38.3 µM
TGI (MCF7 breast): 33.8 µM
TGI (UO-31 renal): > 100 µM
TGI (SF-295 CNS): 51.6 µM
TGI (SF-539 CNS): 85.9 µM
TGI (SF-268 CNS): 95.9 µM
TGI (EKVX NSCLC): > 100 µM
TGI (MALME-3M melanoma): > 100 µM
TGI (ACHN renal): > 100 µM
TGI (K-562 leukemia): > 100 µM
TGI (HT29 colon): 46.8 µM
TGI (T-47D breast): 53.4 µM
TGI (RPMI-8226 leukemia): 56.3 µM
TGI (OVCAR-5 ovarian): 53.4 µM

Cc1nc(SCC(=O)Nc2ccccc2)c2sc(=S)n(-c3ccccc3)c2n1
TGI (SN12C renal): > 10 µM
TGI (HOP-62 NSCLC): > 10 µM
TGI (UACC-257 melanoma): > 10 µM
TGI (786-0 renal): > 10 µM
TGI (OVCAR-8 ovarian): > 10 µM
TGI (KM12 colon): > 10 µM
TGI (HCC-2998 colon): > 10 µM
TGI (MDA-N): > 10 µM
TGI (PC-3 prostate): > 10 µM
TGI (BT-549 breast): > 10 µM
TGI (SK-OV-3 ovarian): > 10 µM
TGI (SW-620 colon): > 10 µM
TGI (SK-MEL-5 melanoma): > 10 µM
TGI (HOP-92 NSCLC): > 10 µM
TGI (SNB-75 CNS): > 10 µM
TGI (U251 CNS): > 10 µM
TGI (OVCAR-3 ovarian): > 10 µM
TGI (CCRF-CEM leukemia): > 10 µM
TGI (LOX IMVI melanoma): > 10 µM
TGI (HCT-15 colon): > 10 µM
TGI (UACC-62 melanoma): > 10 µM
TGI (DU-145 prostate): > 10 µM
TGI (RXF 393 renal): > 10 µM
TGI (MDA-MB-435): > 10 µM
TGI (TK-10 renal): > 10 µM
TGI (A549 NSCLC): > 10 µM
TGI (MOLT-4 leukemia): > 10 µM
TGI (SR leukemia): > 10 µM
TGI (NCI/ADR-RES ovarian): > 10 µM
TGI (CAKI-1 renal): > 10 µM
TGI (M14 melanoma): > 10 µM
TGI (SK-MEL-2 melanoma): > 10 µM
TGI (NCI-H23 lung): > 10 µM
TGI (SNB-19 CNS): > 10 µM
TGI (NCI-H226 lung): 8.99 µM
TGI (IGROV1 ovarian): > 10 µM
TGI (COLO 205 colon): > 10 µM
TGI (SK-MEL-28 melanoma): > 10 µM
TGI (HCT-116 colon): > 10 µM
TGI (HL-60(TB) leukemia): > 10 µM
TGI (NCI-H460 lung): > 10 µM
TGI (A498 renal): > 10 µM
TGI (HS 578T breast): > 10 µM
TGI (MDA-MB-231 breast): > 10 µM
TGI (NCI-H522 lung): > 10 µM
TGI (MCF7 breast): > 10 µM
TGI (SF-295 CNS): > 10 µM
TGI (SF-539 CNS): > 10 µM
TGI (SF-268 CNS): > 10 µM
TGI (EKVX NSCLC): > 10 µM
TGI (MALME-3M melanoma): > 10 µM
TGI (ACHN renal): > 10 µM
TGI (HT29 colon): > 10 µM
TGI (OVCAR-4 ovarian): > 10 µM
TGI (T-47D breast): > 10 µM
TGI (RPMI-8226 leukemia): > 10 µM
TGI (OVCAR-5 ovarian): > 10 µM

C/C=C1/CN2CC[C@@H]3c4ccccc4N4[C@H](C(=O)OC)[C@H]1C[C@H]2[C@]34/C=C/C1=COC[C@@H]2[C@H]1C[C@H]1c3c(c4ccccc4n3C)C[C@@H]2N1C
TGI (SN12C renal): 9.17 µM
TGI (HOP-62 NSCLC): 7.29 µM
TGI (UACC-257 melanoma): 8.51 µM
TGI (OVCAR-8 ovarian): 8.04 µM
TGI (HCC-2998 colon): 1.31 µM
TGI (MDA-N): 5.41 µM
TGI (PC-3 prostate): 6.09 µM
TGI (BT-549 breast): 8.05 µM
TGI (SK-OV-3 ovarian): 8.06 µM
TGI (SW-620 colon): 7.6 µM
TGI (SK-MEL-5 melanoma): 7.48 µM
TGI (HOP-92 NSCLC): 9 µM
TGI (U251 CNS): 7.65 µM
TGI (OVCAR-3 ovarian): 9.66 µM
TGI (CCRF-CEM leukemia): 9.49 µM
TGI (LOX IMVI melanoma): 8.74 µM
TGI (HCT-15 colon): 7.83 µM
TGI (UACC-62 melanoma): 9.29 µM
TGI (DU-145 prostate): 11.9 µM
TGI (RXF 393 renal): 7.9 µM
TGI (MDA-MB-435): 7.18 µM
TGI (TK-10 renal): 7.5 µM
TGI (A549 NSCLC): 8.28 µM
TGI (MOLT-4 leukemia): 13.4 µM
TGI (SR leukemia): 19.3 µM
TGI (NCI/ADR-RES ovarian): 6.69 µM
TGI (CAKI-1 renal): 7.89 µM
TGI (M14 melanoma): 7.9 µM
TGI (SK-MEL-2 melanoma): 8.14 µM
TGI (NCI-H23 lung): 8.43 µM
TGI (SNB-19 CNS): 7.39 µM
TGI (NCI-H226 lung): 9.16 µM
TGI (IGROV1 ovarian): 8.81 µM
TGI (COLO 205 colon): 6.62 µM
TGI (SK-MEL-28 melanoma): 8.88 µM
TGI (HCT-116 colon): 7.61 µM
TGI (NCI-H460 lung): 7.41 µM
TGI (A498 renal): 10 µM
TGI (HS 578T breast): 8.93 µM
TGI (MDA-MB-231 breast): 8.93 µM
TGI (MCF7 breast): 8.67 µM
TGI (UO-31 renal): 7.98 µM
TGI (SF-295 CNS): 8.18 µM
TGI (SF-539 CNS): 7.61 µM
TGI (SF-268 CNS): 7.16 µM
TGI (EKVX NSCLC): 6.17 µM
TGI (MALME-3M melanoma): 8.5 µM
TGI (ACHN renal): 7.43 µM
TGI (K-562 leukemia): 25 µM
TGI (HT29 colon): 5.92 µM
TGI (OVCAR-4 ovarian): 6.88 µM
TGI (T-47D breast): 8.68 µM
TGI (RPMI-8226 leukemia): 8.33 µM
TGI (OVCAR-5 ovarian): 7.99 µM
